In PMC9343080, “Distribution- and Metabolism-Based Drug Discovery: A Potassium-Competitive Acid Blocker as a Proof of Concept” (Research, 2022):
Structures can show the parent of a compound that is named as a salt. Where two headings read alike, the source gives them in different places.

Legend:
[1] = set-up: method as in PMID 27414183; details: human hepatocytes; ref [42]; cited from earlier work
[2] = Tissue distribution of SH-337 in rats (LC-MS/MS); type: in vivo, rat
Experimental: 15 SPF male SD rats were randomly divided into 5 groups, three per group. Fasting was for 4 hours. Plasma, heart, liver, and stomach were obtained 0.25, 1, 2, 4, and 24 hours after oral administration of SH-337 (0.4 mg/mL in water) at a dose of 4 mg/kg. At designated time points, rats were anesthetized with ether, and the blood samples were collected via the abdominal aorta. The blood was immediately cooled under ice-chilled conditions and centrifuged at approximately 1500 × g at 4°C for 10 minutes to obtain the plasma. For plasma: 20 μL Std samples in duplicate, QC samples in duplicate, and rat plasma samples were mixed with 60 μL ACN containing IS (200 ng/mL of tolbutamide, 50 ng/mL of propranolol, and 500 ng/mL of Dic) in EP tubes. After the mixture was vortexed for 1 min and then centrifuged for 10 min (13000 rpm, 4°C), transfer 50 μL supernatant to a 96-well plate with 150 μL pure water, shake for 10 min, and finally analyze by LC-MS/MS. For heart and liver: tissue samples were added with 3-folds (w/v) saline in terms of the weight of samples and then homogenated. 20 μL Std samples in duplicate, QC samples in duplicate, and rat heart and liver samples were mixed with 60 μL ACN containing IS (200 ng/mL of tolbutamide, 50 ng/mL of propranolol, and 500 ng/mL of Dic) in EP tubes. After the mixture was vortexed for 1 min and then centrifuged for 10 min (13000 rpm, 4°C), transfer 50 μL supernatant to a 96-well plate with 150 μL pure water, shake for 10 min, and finally analyze by LC-MS/MS. For stomach: tissue samples were added with 3-folds (w/v) saline in terms of the weight of samples and then homogenated. 20 μL Std samples in duplicate, QC samples in duplicate, and rat stomach samples were mixed with 60 μL ACN containing IS (200 ng/mL of tolbutamide, 50 ng/mL of propranolol, and 500 ng/mL of Dic) in EP tubes. After the mixture was vortexed for 1 min and then centrifuged for 10 min (13000 rpm, 4°C), transfer 50 μL supernatant to a 96-well plate with 150 μL pure water, shake for 10 min, and finally analyze by LC-MS/MS.

[3] = Metabolite identification and profiling in human liver microsomes; type: in vitro ADME
Experimental: (§1) Liver microsomes (1 mg protein/mL) were suspended in phosphate buffer (50 mM, pH 7.4) containing MgCl2 (6 mM). […] The reactions were initiated at 37°C by the addition of 1 mM NADPH and terminated at 30 min or 60 min (30 min for rat; 60 min for human). The samples were precipitated with acetonitrile at 1 : 2 and further centrifuged; the supernatants were dried with a stream of N2 gas. The residues were reconstituted with 300 μL of 10% acetonitrile/H2O (0.1% TFA) and analyzed by LC-MS/MS. The assays were pursued under the conditions provided in Supplementary Tables S4, S6, S7, and S8.

[4] = Metabolite identification and profiling in rat hepatocytes; type: in vitro ADME; details: for Relative peak area, RHeps: SH-337, rat hepatocytes, 60 min incubation
Experimental: (§2) SH-337 was incubated with rat or human hepatocytes at a concentration of 1.0 × 10^6 cells/mL for 60 min or 120 min (rat 60 min, human 120 min) at 37°C in a CO2 incubator. The samples were precipitated with acetonitrile at 1 : 2 and further centrifuged; the supernatants were dried with a stream of N2 gas. The residues were reconstituted with 300 μL of 10% acetonitrile/H2O (0.1% TFA) and analyzed by LC-MS/MS. The assays were pursued under the conditions provided in Supplementary Tables S5–S8.

[5] = Metabolite profiling, range over rat and human liver microsomes; type: in vitro ADME; details: rat and human microsomes after 30 and 60 min incubation
Experimental: as §1

[6] = Metabolite identification and profiling in human hepatocytes; type: in vitro ADME
Experimental: as §2

[7] = target: T1, rabbit gastric H+, K+-ATPase (Oryctolagus cuniculus, UniProt P27112); assay: In vitro enzymatic activity assay (inorganic phosphate from ATP hydrolysis); type: biochemical
T1 construct: using rabbit gastric H^+, K^+-ATPase; from tissue; host or cells: rabbit stomach (gastric preparation; the method of preparation is not described)
Experimental: The in vitro enzymatic activity was calculated by measuring the inorganic phosphate produced by the hydrolysis of ATP using rabbit gastric H^+, K^+-ATPase. 0.25 μg enzyme was preincubated at 37°C for 30 min in Tris-HCl buffer (2.0 mL, 50 mM, pH 6.5) containing 5 mM MgCl2, 10 μM valinomycin, 0 or 20 mM KCl, and different concentrations of SH-337 and vonoprazan. The reaction was initiated by adding 5 μL of 5 mM ATP 2Na, and the preparation was incubated for 30 min at 37°C and halted by the addition of 100 μL of malachite green reagent (0.12% malachite green, 7.5% ammonium molybdate, and 11% tween 20 were mixed in a volume ratio of 100 : 25 : 2). H^+, K^+-ATPase activity was calculated after subtracting the enzyme activity in the absence of KCl.

[8] = Metabolite identification and profiling in rat liver microsomes; type: in vitro ADME
Experimental: as §1

[9] = Metabolite profiling, range over rat and human hepatocytes; type: in vitro ADME; details: rat and human hepatocytes after 60 and 120 min incubation
Experimental: as §2

[10] = cited from earlier work
[11] = log D7.4 measurement (1-octanol/PBS pH 7.4); type: physicochemical; details: 1-octanol/PBS, pH 7.4, pH 7.4
Experimental: (§3) Procedure for pKa and log D7.4 measurements. The pKa was determined using pH-metric Method from DMSO Stock Solution. Procedure for Log D determinations: 15 µL of stock solutions of test compounds and control compound was placed in order into their proper 96-well rack. 500 µL of PBS saturated 1-octanol was added into each vial of the cap-less Log D plate followed by the addition of 500 µL of 1-octanol saturated PBS (pH 7.4). One stir stick was added to each vial and a molded PTFE/Silicone plug was used to seal each vial. Then the Log D plate was transferred to the Eppendorf Thermomixer Comfort plate shaker and shaken at 25°C at 1,100 RPM for 1 hour. After completion of 1 hour, plugs were removed and the stir sticks were removed using a big magnet. The samples were then centrifuged at 25°C at 20,000 g for 20 minutes to separate the phases, and pipette and syringe were used to remove the upper (1-octanol) and lower (buffer) phases to the empty tubes, respectively. Aliquots of 5 µL were taken from upper phases followed by addition of 495 µL of a mixture of H2O and acetonitrile (1:1 in v/v). Vortex for 1 minute, and then aliquots of 50 µL were taken from the diluent followed by addition of 450 µL of a mixture of H2O and acetonitrile (1:1 in v/v). And aliquots of 50 µL were taken from lower phases followed by addition of 450 µL of a mixture of H2O and acetonitrile (1:1 in v/v). 200 μL of diluent was transferred to a new 96-well plate for LC-MS/MS analysis. The dilution factor was changed according to the Log D value and the LC-MS signal response. The concentrations of test compound and control compound in 1-octanol/buffer solution were evaluated by LC-MS/MS. The Log D values of the test compounds and control compound were calculated as follows: […]

[12] = pKa measurement (pH-metric method); type: physicochemical; details: read-out: pKa
Experimental: as §3

[13] = rats, i.g. 2 mg/kg vonoprazan, ref [43]

T1 sequence (P27112 whole entry): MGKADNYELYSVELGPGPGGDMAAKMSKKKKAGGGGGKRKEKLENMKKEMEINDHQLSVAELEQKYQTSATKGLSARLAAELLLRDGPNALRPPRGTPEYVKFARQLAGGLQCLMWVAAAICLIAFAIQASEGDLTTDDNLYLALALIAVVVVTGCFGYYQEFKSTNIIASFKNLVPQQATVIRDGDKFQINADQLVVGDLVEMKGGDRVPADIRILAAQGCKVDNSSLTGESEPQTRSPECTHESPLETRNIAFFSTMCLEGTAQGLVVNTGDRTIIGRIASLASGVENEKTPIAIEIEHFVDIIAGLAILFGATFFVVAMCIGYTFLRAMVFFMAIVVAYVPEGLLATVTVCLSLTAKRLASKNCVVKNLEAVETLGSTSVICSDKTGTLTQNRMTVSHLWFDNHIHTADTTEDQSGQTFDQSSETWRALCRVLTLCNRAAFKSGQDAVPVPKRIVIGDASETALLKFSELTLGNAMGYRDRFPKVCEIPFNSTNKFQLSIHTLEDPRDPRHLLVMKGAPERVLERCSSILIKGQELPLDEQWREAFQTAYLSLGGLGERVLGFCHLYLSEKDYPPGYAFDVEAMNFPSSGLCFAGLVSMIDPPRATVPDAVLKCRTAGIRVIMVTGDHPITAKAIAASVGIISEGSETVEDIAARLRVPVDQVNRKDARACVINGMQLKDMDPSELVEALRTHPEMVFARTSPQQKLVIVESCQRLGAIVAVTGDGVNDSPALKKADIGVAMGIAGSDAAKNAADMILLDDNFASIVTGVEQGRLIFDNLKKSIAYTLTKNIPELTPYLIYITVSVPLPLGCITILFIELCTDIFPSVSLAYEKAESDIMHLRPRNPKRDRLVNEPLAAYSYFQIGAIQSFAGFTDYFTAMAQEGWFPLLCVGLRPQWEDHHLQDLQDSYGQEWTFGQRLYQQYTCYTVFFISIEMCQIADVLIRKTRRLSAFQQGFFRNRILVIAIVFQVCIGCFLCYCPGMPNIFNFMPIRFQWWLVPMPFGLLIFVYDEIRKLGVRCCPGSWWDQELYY
T1 sequence (P18597 whole entry partner): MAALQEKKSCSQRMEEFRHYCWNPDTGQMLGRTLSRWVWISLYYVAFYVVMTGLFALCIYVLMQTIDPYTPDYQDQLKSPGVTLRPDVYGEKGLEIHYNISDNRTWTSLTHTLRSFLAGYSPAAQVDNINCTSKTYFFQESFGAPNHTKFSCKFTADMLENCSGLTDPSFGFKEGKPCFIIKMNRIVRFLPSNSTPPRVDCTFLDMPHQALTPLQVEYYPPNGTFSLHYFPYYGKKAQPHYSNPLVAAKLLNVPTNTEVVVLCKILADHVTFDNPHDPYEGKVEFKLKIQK

C/[N+]([O-])=C/c1cc(-c2ccccc2F)n(S(=O)(=O)c2cccnc2)c1 [M-III]
share in the in vitro metabolic profile of vonoprazan [1]: 4.1%

O=C(O)c1c[nH]c(-c2ccccc2F)c1 [M-II]
share in the in vitro metabolic profile of vonoprazan [1]: 0.5%

CNCc1cc(-c2ccc(O)cc2F)n(S(=O)(=O)c2cccnc2)c1.Cl.Cl [M-IV, 3-fluoro-4-(4-((methylamino)methyl)-1-(pyridin-3-ylsulfonyl)-1H-pyrrol-2-yl)phenol dihydrochloride]
AUC0–24 in the liver ([2]; after oral dosing of 4.0 mg/kg SH-337): 3410 ng·h/g
AUC(0-t) ([2]; male, SD, rat, plasma, po, rats, i.g. 4 mg/kg SH-337, read-out: AUC0–24, Plasma): 20.3 ng·h/mL
AUC0–24, Liver ([2]; rats, i.g. 4 mg/kg SH-337): 3411.2 ng equiv. h/mL or g
AUC0–24, Stomach ([2]; rats, i.g. 4 mg/kg SH-337): 94.1 ng equiv. h/mL or g
Percentage of all the metabolites except SH-337, HLMs ([3]; 60 min): 89.4%
Relative peak area, HLMs ([3]; SH-337 10 µM, 60 min incubation): 27.8%
Relative peak area, RHeps [4]: 40.3%
Percentage of all the metabolites except SH-337, RHeps ([4]; rat hepatocytes, 60 min): 56.1%
Percentage of all SH-337 metabolites in microsomes [5]: 89.4-90.2%
Relative peak area, Hheps ([6]; SH-337, human hepatocytes, 120 min incubation): 11.6%
Percentage of all the metabolites except SH-337, Hheps ([6]; human hepatocytes, 120 min): 49.4%
IC50 [7]: 112 nM
Percentage of all the metabolites except SH-337, RLMs ([8]; 30 min): 90.2%
Relative peak area, RLMs ([8]; SH-337 10 µM, 30 min incubation): 49%
Percentage of all SH-337 metabolites in hepatocytes [9]: 49.4–56.1%

CN(Cc1cc(-c2ccc(O)cc2F)n(S(=O)(=O)c2cccnc2)c1)S(=O)(=O)O [M-IV-Sul]
share in the in vitro metabolic profile of vonoprazan [1]: 28%

O=C(O)c1cc(-c2ccccc2F)n(S(=O)(=O)c2cccnc2)c1 [M-I]
AUC0–24 in the liver ([10]; after oral dosing of 2.0 mg/kg vonoprazan, ref [43]): 18400 ng·h/g
fold higher levels compared with those of vonoprazan ([10]; plasma, liver and kidney, rat model, ref [44]): 4.3- to 58 fold
AUC0–24, Liver [10, 13]: 18404.0 ng equiv. h/mL or g
AUC0–24, Plasma [10, 13]: 4392.0 ng equiv. h/mL or g
AUC0–24, Stomach [10, 13]: 918.0 ng equiv. h/mL or g
share in the in vitro metabolic profile of vonoprazan [1]: 18%

NCc1cc(-c2ccccc2F)n(S(=O)(=O)c2cccnc2)c1 [N-demethylated vonoprazan]
share in the in vitro metabolic profile of vonoprazan [1]: 30%

CNCc1cc(-c2ccc(OCc3cnn(C)c3)cc2F)n(S(=O)(=O)c2cccnc2)c1 [S1, 1-(5-(2-fluoro-4-((1-methyl-1H-pyrazol-4-yl)methoxy)phenyl)-1-(pyridin-3-ylsulfonyl)-1H-pyrrol-3-yl)-N-methylmethanamine fumarate]
IC50 [7]: 57.8 nM
logD at 1 h [11]: 0.5
pKa [12]: 9.26

CNCc1cc(-c2ccc(OCC3COC3)cc2F)n(S(=O)(=O)c2cccnc2)c1 [S2, 1-(5-(2-fluoro-4-(oxetan-3-ylmethoxy)phenyl)-1-(pyridin-3-ylsulfonyl)-1H-pyrrol-3-yl)-N-methylmethanamine dihydrochloride]
IC50 [7]: 129 nM
logD at 1 h [11]: 0.91
pKa [12]: 9.13

CN(Cc1cc(-c2ccc(OCC3CC3)cc2F)n(S(=O)(=O)c2cccnc2)c1)S(=O)(=O)O [Sulfated SH-337]
Relative peak area, RHeps [4]: 0.1%
Percentage of all SH-337 metabolites in microsomes [5]: 0%
Percentage of all SH-337 metabolites in hepatocytes [9]: 0.13%
